Data published in article PMC9645260, “Small-molecule inhibitors of P-Rex guanine-nucleotide exchange factors” (Small GTPases, 2022).

Experiments:
P-Rex1 DH domain = target: T1, P-Rex1 DH domain (Homo sapiens, UniProt Q8TCU6); assay: Liposome-based GEF activity assay, isolated P-Rex1 DH domain; type: biochemical; details: 10 µM compound
T1 construct: 200 nM iDH EE-P-Rex1 DH domain (compounds 11–29); made in house; host or cells: Sf9 cells (baculovirus)
Method: Full-length N-terminally EE-tagged P-Rex1, P-Rex2, the P-Rex1 DH and DHPH domains and the P-Rex2 DH domain were produced in Sf9 cells using baculoviral transduction and were purified using anti-EE beads, as previously described. Briefly, frozen pellets from 500 ml of Sf9 culture infected with P-Rex expressing high-titre baculovirus were resuspended in ice-cold lysis Sf9-cell lysis buffer 2 (1x PBS, 1% Triton X-100, 5 mM EGTA, 1 mM EDTA, 25 mM NaF, 20 mM β-glycerophosphate, 1 mM DTT, 100 µM PMSF, 10 μg/ml each of leupeptin, pepstatin A, aprotinin and antipain) for 5 min and then ultracentrifuged at 118,000 × g for 1 h at 4°C. Supernatants were incubated with pre-washed anti-EE beads for 90 min on ice with end-over-end rotation. Beads were washed 4 times in wash buffer (2x PBS, 0.1% Triton X-100, 1 mM EGTA) and 5 times in elution buffer (1x PBS, 10% glycerol, 1 mM DTT, 1 mM EGTA, 0.01% Na azide), and protein was eluted by incubation with elution buffer containing Ac-EEYMPME peptide as described above. Protein was concentrated in a YM-100 Centricon (Millipore) at 5000 × g at 4°C. Fatty acid-free BSA and glycerol were added to final concentrations of 2 mg/ml and 50%, respectively. Protein concentration and purity were determined by coomassie staining of SDS-PAGE gels. Full-length Tiam1, expressed in and purified from Sf9 cells, was a kind gift from Angeliki Malliri, CRUK Manchester Institute, UK. […]
Liposome-based GEF activity assays were carried out essentially as described, except that GEFs were incubated with inhibitor compounds prior to the assay. […] Small GTPases were isolated using anti-EE antibody-coupled Sepharose beads or glutathione Sepharose beads, as appropriate, by incubation on ice for 90 min with end-over-end rotation, four washes in ice-cold wash buffer and resuspension of beads in Ultima Gold scintillation fluid (Perkin Elmer). ^35S-GTPγS incorporation was assessed by scintillation counting (Packard 1600TR, Liquid Scintillation Analyser).

P-Rex1 DHPH domains = target: T2, P-Rex1 DHPH domains (Homo sapiens, UniProt Q8TCU6); assay: Liposome-based GEF activity assay, isolated P-Rex1 DHPH domains; type: biochemical; details: for P-Rex1 Rac-GEF activity reduced to / remaining activity at 10 µM: 10 µM compound; for P-Rex1 Rac-GEF activity reduced to: P-Rex1 DHPH domains; for IC50: liposome-based GEF assay, 200 nM prenylated EE-Rac2 as substrate, read-out: IC50 of inhibition of P-Rex1 DHPH Rac-GEF activity
T2 construct: 100 nM EE-P-Rex1 DHPH domains (PREX-in1, compounds 2–10 and 30–128); made in house; host or cells: Sf9 cells (baculovirus)
T2 sequence (Q8TCU6 49-392 limits assumed): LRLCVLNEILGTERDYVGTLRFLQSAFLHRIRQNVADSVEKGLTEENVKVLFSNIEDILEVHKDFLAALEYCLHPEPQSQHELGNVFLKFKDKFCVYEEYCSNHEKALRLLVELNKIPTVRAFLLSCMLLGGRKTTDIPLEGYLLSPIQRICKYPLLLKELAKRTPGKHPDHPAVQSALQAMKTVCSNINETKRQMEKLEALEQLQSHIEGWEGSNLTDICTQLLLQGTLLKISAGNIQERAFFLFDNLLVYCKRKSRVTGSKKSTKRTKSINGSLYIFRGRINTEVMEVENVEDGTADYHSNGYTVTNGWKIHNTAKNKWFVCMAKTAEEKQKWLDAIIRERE
Method: Full-length N-terminally EE-tagged P-Rex1, P-Rex2, the P-Rex1 DH and DHPH domains and the P-Rex2 DH domain were produced in Sf9 cells using baculoviral transduction and were purified using anti-EE beads, as previously described. Briefly, frozen pellets from 500 ml of Sf9 culture infected with P-Rex expressing high-titre baculovirus were resuspended in ice-cold lysis Sf9-cell lysis buffer 2 (1x PBS, 1% Triton X-100, 5 mM EGTA, 1 mM EDTA, 25 mM NaF, 20 mM β-glycerophosphate, 1 mM DTT, 100 µM PMSF, 10 μg/ml each of leupeptin, pepstatin A, aprotinin and antipain) for 5 min and then ultracentrifuged at 118,000 × g for 1 h at 4°C. Supernatants were incubated with pre-washed anti-EE beads for 90 min on ice with end-over-end rotation. Beads were washed 4 times in wash buffer (2x PBS, 0.1% Triton X-100, 1 mM EGTA) and 5 times in elution buffer (1x PBS, 10% glycerol, 1 mM DTT, 1 mM EGTA, 0.01% Na azide), and protein was eluted by incubation with elution buffer containing Ac-EEYMPME peptide as described above. Protein was concentrated in a YM-100 Centricon (Millipore) at 5000 × g at 4°C. Fatty acid-free BSA and glycerol were added to final concentrations of 2 mg/ml and 50%, respectively. Protein concentration and purity were determined by coomassie staining of SDS-PAGE gels. Full-length Tiam1, expressed in and purified from Sf9 cells, was a kind gift from Angeliki Malliri, CRUK Manchester Institute, UK. The ITSN1 DHPH domains and Ect2 DHPH domains, produced in and purified from bacteria, were a kind gift from Kent Rossman, University of North Carolina, Chapel Hill, USA. The DOCK10 DHR2 domain, produced in and purified from bacteria, was a kind gift from Danni Fan, Institute of Cancer Research, London, UK. All small GTPase and GEF proteins were stored in aliquots at −80°C and were snap-frozen in liquid N2 after each use.
Liposome-based GEF activity assays were carried out essentially as described, except that GEFs were incubated with inhibitor compounds prior to the assay. GEFs (full-length P-Rex1, P-Rex2, and Tiam1, P-Rex1 DH and DHPH domains, P-Rex2 DH domain, ITSN1 DHPH domains, ECT2 DHPH domains or DOCK10 DHR2 domain) were diluted in 20 mM HEPES (pH 7.0 at 4°C), 200 mM KCl, 10% ethylene glycerol, 1% betaine, 500 µM EGTA, 0.01% azide. […] The final 10 µl samples contained GTPase, GEF and inhibitor at concentrations as stated, in 20 mM HEPES pH 7.5, 100 mM NaCl, 1 mM MgCl2, 1 mM EGTA, 1 mM DTT, 10 mg/ml fatty acid-free BSA, liposomes consisting of phosphatidylcholine, -serine and -inositol (200 µM each), with or without 10 µM PIP3, 1 µM GTPγS and 80 nM (1 µCi) ^35S-GTPγS. Positive controls contained additionally 2 mM EDTA to induce maximal GTP-loading of the GTPase. Samples were incubated at 30°C for 10 min, and reactions were stopped by the addition of 400 µl ice-cold wash buffer (1x PBS, 1 mM EGTA, 10 mM MgCl2, 1% Triton X-100, 100 µM GTP). Small GTPases were isolated using anti-EE antibody-coupled Sepharose beads or glutathione Sepharose beads, as appropriate, by incubation on ice for 90 min with end-over-end rotation, four washes in ice-cold wash buffer and resuspension of beads in Ultima Gold scintillation fluid (Perkin Elmer). ^35S-GTPγS incorporation was assessed by scintillation counting (Packard 1600TR, Liquid Scintillation Analyser).

[1] = 100 nM EE-P-Rex1 DHPH domains, 200 nM prenylated EE-Rac1, PREX-in1, compounds 2-10 and 30-128

T1 sequence (Q8TCU6 49-240 limits assumed): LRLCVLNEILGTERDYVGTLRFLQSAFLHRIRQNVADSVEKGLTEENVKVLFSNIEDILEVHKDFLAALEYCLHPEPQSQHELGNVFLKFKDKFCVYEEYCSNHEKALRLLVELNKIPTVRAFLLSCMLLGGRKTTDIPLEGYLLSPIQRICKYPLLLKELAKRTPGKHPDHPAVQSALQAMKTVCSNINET

SMILES | P-Rex1 Rac-GEF activity reduced to (P-Rex1 DH domain; P-Rex1 DH domain) | remaining activity at 10 µM (P-Rex1 DH domain; 200 nM EE-P-Rex1 DH domain, 200 nM prenylated EE-Rac1, compounds 11-29) [%] | P-Rex1 Rac-GEF activity reduced to (P-Rex1 DHPH domains) | remaining activity at 10 µM (P-Rex1 DHPH domains; [1]) [%] | IC50 (P-Rex1 DHPH domains) [nM] | % P-Rex1 activity remaining (P-Rex1 DHPH domains; [1]) [%]
CCc1[nH]nc2c1C(c1ccc(-c3ccc(Cl)cc3)o1)C(C#N)=C(N)O2 (stereo not shown) [#26] | below 10% | 4 |  |  |  | 
COc1cc(NC(=O)c2ccc(-c3ccc(Cl)cc3)o2)cc(OC)c1 [#66] |  |  |  |  |  | 58
N#CC1=C(N)Oc2n[nH]c(-c3ccc(C(F)(F)F)cc3)c2C1c1ccc(-c2ccc(Cl)cc2)o1 (stereo not shown) [#116] |  |  | below 10% | 9 | 2700 | 

Now from value to compound:

P-Rex1 Rac-GEF activity reduced to (P-Rex1 DH domain; P-Rex1 DH domain) | remaining activity at 10 µM (P-Rex1 DH domain; 200 nM EE-P-Rex1 DH domain, 200 nM prenylated EE-Rac1, compounds 11-29) [%] | P-Rex1 Rac-GEF activity reduced to (P-Rex1 DHPH domains) | remaining activity at 10 µM (P-Rex1 DHPH domains; [1]) [%] | IC50 (P-Rex1 DHPH domains) [nM] | % P-Rex1 activity remaining (P-Rex1 DHPH domains; [1]) [%] | SMILES
 |  | below 10% | 2 | 2000 |  | COc1ccc(-c2[nH]nc3c2C(c2ccc(-c4ccc(OC)c(Cl)c4)o2)C(C#N)=C(N)O3)cc1 (stereo not shown) [#61]
 |  | below 10% | 1.69 |  |  | COc1ccc(-c2ccc(C3C(C#N)=C(N)Oc4n[nH]c(-c5ccc(C)cc5)c43)o2)cc1Cl (stereo not shown) [#72]
 |  | below 10% | -2.19 |  |  | COc1ccc(-c2ccc(C3C(C#N)=C(N)Oc4n[nH]c(-c5ccc(Cl)cc5)c43)o2)cc1Cl (stereo not shown) [#76]
